According to patent US20230203029A1 (priority 2020, published 2023):
Where two headings read alike, the source gives them in different places.

Columns and labels:
[1] = target: T1, human MERTK cytoplasmic domain (Homo sapiens, UniProt Q12866); assay: biochemical
T1 construct: human MERTK cytoplasmic domain (Carna Biosciences 08-108); purchased Carna Biosciences 08-108
Method: Assay 1a—MERTK HTRF KinEASE-TK Assay
The enzymatic reaction was carried out for 30 min at room temperature. 10 μL TK Antibody-Cryptate/Streptavidin-XL665 (Cisbio 610SAXLG) was then added for 60 min, including EDTA containing detection buffer (Cisbio 62SDBRDF) to stop the reaction.

[2] = target: T2, recombinant human AXL expressed in live cells (HEK, AXL-Nanoluc fusion vector) (Homo sapiens, UniProt P30530); assay: Assay 3 AXL cellular target engagement (NanoBRET TE) assay; assay type: cell-based
T2 construct: host or cells: HEK
T2 sequence (P30530 26-894): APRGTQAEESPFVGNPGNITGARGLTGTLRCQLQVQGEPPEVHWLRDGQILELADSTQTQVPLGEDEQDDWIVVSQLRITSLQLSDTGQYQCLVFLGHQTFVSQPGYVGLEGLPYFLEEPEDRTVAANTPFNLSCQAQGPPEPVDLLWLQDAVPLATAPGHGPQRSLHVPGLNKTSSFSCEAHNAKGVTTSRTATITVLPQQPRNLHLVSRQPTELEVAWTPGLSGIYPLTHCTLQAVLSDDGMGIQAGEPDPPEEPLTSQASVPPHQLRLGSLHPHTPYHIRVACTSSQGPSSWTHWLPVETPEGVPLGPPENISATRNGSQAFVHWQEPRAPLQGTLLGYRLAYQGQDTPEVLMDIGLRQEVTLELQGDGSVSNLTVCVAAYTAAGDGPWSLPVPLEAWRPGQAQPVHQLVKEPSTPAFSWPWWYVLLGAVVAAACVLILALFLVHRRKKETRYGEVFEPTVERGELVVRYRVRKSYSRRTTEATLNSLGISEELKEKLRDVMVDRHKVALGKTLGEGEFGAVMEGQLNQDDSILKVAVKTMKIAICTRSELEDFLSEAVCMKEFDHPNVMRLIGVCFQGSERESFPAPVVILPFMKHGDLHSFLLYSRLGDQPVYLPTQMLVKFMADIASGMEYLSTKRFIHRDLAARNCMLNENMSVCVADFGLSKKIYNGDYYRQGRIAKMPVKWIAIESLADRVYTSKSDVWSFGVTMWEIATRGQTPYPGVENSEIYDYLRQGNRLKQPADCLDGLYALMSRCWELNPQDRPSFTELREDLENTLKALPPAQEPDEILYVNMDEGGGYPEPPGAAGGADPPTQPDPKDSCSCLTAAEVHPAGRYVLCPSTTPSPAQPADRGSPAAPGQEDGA
Method: Assay 3—AXL Cellular Target Engagement (TE) Assay
Compound affinities for recombinant human AXL expressed in live cells were assessed via the Promega NanoBRET TE assay technology. Human Embryonic Kidney (HEK) cells were transiently transfected with the AXL-Nanoluc fusion vector (Promega Cat NV1071) using Fugene HD reagent (Promega E2311). […] Incubations were conducted for 2 h at 37° C., after which 20 μl NanoGlo substrate/inhibitor mix (Promega N2161) was added to each well for 2-3 min. The plate was then read on a BMG Pherastar FSX using a NanoBRET filter to record donor emission at 450 nm and acceptor fluorophore emission at 610 nm. From this the BRET ratio (acceptor 610 nm/donor 450 nm) for each data point was calculated.

[3] = target: T3, recombinant human MERTK expressed in live cells (HEK 293, MERTK-Nanoluc fusion vector) (Homo sapiens, UniProt Q12866); assay: Assay 2 MERTK cellular target engagement (NanoBRET TE) assay; assay type: cell-based; conditions: HEK 293 cells, tracer K9, 2 h at 37° C.; read-out: Assay 2 Cell TE MER IC50
T3 construct: host or cells: HEK 293
T3 sequence (Q12866 21-999): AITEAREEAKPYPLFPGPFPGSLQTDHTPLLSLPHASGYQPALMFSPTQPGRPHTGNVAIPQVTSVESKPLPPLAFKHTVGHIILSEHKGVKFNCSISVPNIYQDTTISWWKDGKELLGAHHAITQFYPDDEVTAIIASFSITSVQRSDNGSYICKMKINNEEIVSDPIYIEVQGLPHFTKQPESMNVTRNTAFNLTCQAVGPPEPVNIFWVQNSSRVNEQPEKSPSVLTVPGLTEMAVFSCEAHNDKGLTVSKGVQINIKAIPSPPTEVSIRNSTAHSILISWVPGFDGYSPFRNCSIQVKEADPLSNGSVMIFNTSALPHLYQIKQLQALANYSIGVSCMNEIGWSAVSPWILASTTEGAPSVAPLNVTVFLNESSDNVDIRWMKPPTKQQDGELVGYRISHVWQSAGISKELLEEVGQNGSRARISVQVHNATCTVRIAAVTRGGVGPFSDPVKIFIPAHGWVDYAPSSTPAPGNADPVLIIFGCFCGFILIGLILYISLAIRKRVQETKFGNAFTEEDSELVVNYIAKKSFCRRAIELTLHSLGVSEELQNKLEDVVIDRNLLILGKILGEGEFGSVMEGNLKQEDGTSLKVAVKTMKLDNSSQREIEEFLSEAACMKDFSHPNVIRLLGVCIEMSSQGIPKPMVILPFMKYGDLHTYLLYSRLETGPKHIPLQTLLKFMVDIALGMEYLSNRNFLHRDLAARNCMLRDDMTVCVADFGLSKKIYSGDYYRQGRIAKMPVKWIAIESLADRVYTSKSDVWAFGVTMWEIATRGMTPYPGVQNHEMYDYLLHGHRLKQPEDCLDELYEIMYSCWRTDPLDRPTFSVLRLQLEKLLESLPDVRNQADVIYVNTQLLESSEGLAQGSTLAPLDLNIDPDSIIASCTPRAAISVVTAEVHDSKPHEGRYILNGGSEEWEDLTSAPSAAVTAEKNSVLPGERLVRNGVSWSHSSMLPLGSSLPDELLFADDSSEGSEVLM

[4] = target: T4, Ba/F3 Pro B-cell line expressing TEL-human MERTK fusion domain (Homo sapiens, UniProt Q12866); assay type: cell-based
T4 sequence (Q12866 587-858 limits assumed): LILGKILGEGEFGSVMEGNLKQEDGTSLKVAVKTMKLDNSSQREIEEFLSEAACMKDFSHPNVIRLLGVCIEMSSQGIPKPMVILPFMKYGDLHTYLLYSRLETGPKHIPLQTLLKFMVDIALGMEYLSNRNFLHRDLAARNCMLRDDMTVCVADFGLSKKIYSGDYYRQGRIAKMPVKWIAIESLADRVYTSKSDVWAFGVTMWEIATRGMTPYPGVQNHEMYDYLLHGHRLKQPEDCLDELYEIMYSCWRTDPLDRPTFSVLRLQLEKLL
How it was run: (§1)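 Ba/F3 cells dependent on BCR-AXL or TEL-MERTK fusion kinase (IL3-free; IL3 only for control lines) treated with compound 48 h at 37 °C, 0.25% DMSO. Viability by CellTiter-Glo luminescence; IC50 for half-maximal inhibition of survival from 4-parameter variable-slope fit.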

[5] = target: T5, Ba/F3 Pro B-cell line expressing BCR-human AXL kinase domain fusion protein (Homo sapiens, UniProt P30530); assay: Assay 5 Ba/F3 cell survival assay, BCR-Axl; assay type: cell-based; conditions: read-out: BCR-Axl Ba/F3 IC50, 48 h, CellTiter-Glo
T5 construct: P11274 (Breakpoint cluster region protein)
T5 sequence (P30530 536-807 limits assumed): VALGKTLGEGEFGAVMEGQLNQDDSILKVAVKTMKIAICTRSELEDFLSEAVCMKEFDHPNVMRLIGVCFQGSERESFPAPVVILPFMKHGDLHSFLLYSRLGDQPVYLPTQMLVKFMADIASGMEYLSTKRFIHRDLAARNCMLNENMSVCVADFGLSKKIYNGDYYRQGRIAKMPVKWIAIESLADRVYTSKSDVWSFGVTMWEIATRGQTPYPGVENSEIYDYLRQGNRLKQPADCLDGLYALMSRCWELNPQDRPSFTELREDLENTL
How it was run: as §1

[6] = target: T6, Ba/F3 Pro B-cell line expressing TEL-human Tyro3 fusion domain (Homo sapiens, UniProt Q06418); assay type: cell-based; conditions: cell survival, 48 h, CellTiter-Glo
T6 sequence (Q06418 518-790 limits assumed): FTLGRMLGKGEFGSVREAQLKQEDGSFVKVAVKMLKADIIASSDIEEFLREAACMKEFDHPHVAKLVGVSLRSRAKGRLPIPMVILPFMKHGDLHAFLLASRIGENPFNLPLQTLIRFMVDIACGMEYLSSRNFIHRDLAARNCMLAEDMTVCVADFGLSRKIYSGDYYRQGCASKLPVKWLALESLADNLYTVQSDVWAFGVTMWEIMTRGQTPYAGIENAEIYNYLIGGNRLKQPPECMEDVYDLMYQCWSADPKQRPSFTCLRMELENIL

[7] = target: T7, human AXL cytoplasmic domain (Homo sapiens, UniProt P30530); assay: Assay 1b AXL HTRF KinEASE-TK assay; assay type: biochemical
T7 construct: human AXL cytoplasmic domain (Thermo Fisher A31515); purchased Thermo Fisher A31515
T7 sequence (P30530 473-894 limits assumed): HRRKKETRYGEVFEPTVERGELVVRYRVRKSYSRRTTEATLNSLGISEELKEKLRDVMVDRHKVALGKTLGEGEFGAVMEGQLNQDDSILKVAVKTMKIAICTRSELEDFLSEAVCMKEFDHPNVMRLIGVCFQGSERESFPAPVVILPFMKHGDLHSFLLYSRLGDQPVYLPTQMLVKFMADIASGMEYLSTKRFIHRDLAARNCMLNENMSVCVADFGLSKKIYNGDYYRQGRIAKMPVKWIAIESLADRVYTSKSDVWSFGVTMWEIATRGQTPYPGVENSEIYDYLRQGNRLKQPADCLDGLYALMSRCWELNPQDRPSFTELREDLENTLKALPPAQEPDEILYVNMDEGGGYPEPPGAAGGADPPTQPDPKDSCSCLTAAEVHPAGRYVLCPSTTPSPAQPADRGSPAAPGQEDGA
How it was run: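 Recombinant cytoplasmic domain (5 nM) in kinase buffer with 5 mM MgCl2, 1 mM MnCl2, 1 mM DTT, 50 nM SEB plus test compounds; reaction 30 min at room temperature. EDTA-containing detection with TK antibody-cryptate/streptavidin-XL665 for 60 min; HTRF 665/620 ratio read. IC50 from 4-parameter logistic fit with variable slope.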

[8] = 30 uM ATP, read-out: Assay 1a Mer IC50 30 uM ATP
[9] = 30 uM ATP, * Maximal inhibition achieved 40%, read-out: Assay 1a Mer IC50 30 uM ATP

SMILES | IC50 [1, 8] [nM] | IC50 [2] [nM] | IC50 [3] [nM] | also measured
O=C(Nc1ccc(Nc2ccnc3cnc(N4CCNCC4)cc23)cc1)c1cccn(-c2ccc(F)cc2)c1=O [Example 1.2, 1-(4-fluorophenyl)-2-oxo-N-[4-[(6-piperazin-1-yl-1,7-naphthyridin-4-yl)amino]phenyl]pyridine-3-carboxamide] | 20 | 114 | 28 | –
CC(C)n1cc(C(=O)Nc2ccc(Nc3ccnc4cnc(N5CCNCC5)cc34)cc2)c(=O)n(-c2ccc(F)cc2)c1=O [Example 1.1, 3-(4-fluorophenyl)-1-isopropyl-2,4-dioxo-N-[4-[(6-piperazin-1-yl-1,7-naphthyridin-4-yl)amino]phenyl]pyrimidine-5-carboxamide] | 75 | 2.9 | 1750 | –
O=C(N[C@H]1CC[C@H](O)CC1)c1cc2c(Nc3ccc(NC(=O)c4cccn(-c5ccccc5)c4=O)cc3)ccnc2cn1 [Example 5, N-(4-hydroxycyclohexyl)-4-[4-[(2-oxo-1-phenyl-pyridine-3-carbonyl)amino]anilino]-1,7-naphthyridine-6-carboxamide] | 60 | 97.5 | 96.1 | –
Cc1c(C(=O)Nc2ccc(Nc3ccnc4cnc(N5CCNCC5)cc34)cc2)c(=O)n(-c2ccccc2)n1C [Example 1.4, 1,5-dimethyl-3-oxo-2-phenyl-N-[4-[(6-piperazin-1-yl-1,7-naphthyridin-4-yl)amino]phenyl]pyrazole-4-carboxamide] | 33 | – | 2190 | –
Cn1cc(-c2cc3c(Nc4ccc(NC(=O)c5cccn(-c6ccccc6)c5=O)cc4)ccnc3cn2)cn1 [Example 4, N-[4-[[6-(1-methylpyrazol-4-yl)-1,7-naphthyridin-4-yl]amino]phenyl]-2-oxo-1-phenyl-pyridine-3-carboxamide] | – | – | 2900 | IC50 [1, 9]: 3 nM
CN1CCC(Oc2cc3c(Oc4ccc(NC(=O)c5cccn(-c6ccc(F)cc6)c5=O)nc4)ccnc3cn2)CC1 [Example 24, 1-(4-fluorophenyl)-N-[5-[[6-[(1-methyl-4-piperidyl)oxy]-1,7-naphthyridin-4-yl]oxy]-2-pyridyl]-2-oxo-pyridine-3-carboxamide] | – | – | – | IC50 [1]: 6 nM; IC50 ([4]; read-out: TEL-MERTK Ba/F3 IC50; cell survival, 48 h, CellTiter-Glo): 6 nM; IC50 [5]: 6 nM; IC50 [6]: 37 nM; IC50 [7]: 21 nM

More lines, main results first:

IC50 [1, 8] [nM] | IC50 [2] [nM] | IC50 [3] [nM] | SMILES | also measured
– | 363 | 174 | NC(=O)c1cc2c(Nc3ccc(NC(=O)c4cccn(-c5ccccc5)c4=O)cc3)ccnc2cn1 [Example 5.2, 4-[4-[(2-oxo-1-phenyl-pyridine-3-carbonyl)amino]anilino]-1,7-naphthyridine-6-carboxamide] | IC50 [1, 9]: 17 nM
4 | – | – | CN1CCC(NC(=O)c2cc3c(Oc4ccc(NC(=O)c5cccn(-c6ccc(F)cc6)c5=O)cc4)ccnc3cn2)CC1 [Example 8.1, 4-[4-[[1-(4-fluorophenyl)-2-oxo-pyridine-3-carbonyl]amino]phenoxy]-N-(1-methyl-4-piperidyl)-1,7-naphthyridine-6-carboxamide] | IC50 ([4]; cell survival, 48 h, CellTiter-Glo; read-out: TEL-MERTK Ba/F3 IC50): 17 nM; IC50 [5]: 7 nM; IC50 [6]: 48 nM; IC50 [7]: 28 nM
